Measurements: ChEMBL document CHEMBL3621056, “Discovery of mitochondria-targeting berberine derivatives as the inhibitors of proliferation, invasion and migration against rat C6 and human U87 glioma cells” (Medchemcomm, 2015)
Active and inactive are the calls of the source. The rule behind the calls is not given here.

How the values were obtained:
[1] = Drug uptake in mitochondria of human U87 cells at 1 uM after 24 hrs by Mitotracker Green FM staining-based laser confocal microscopic analysis; type: ADME; conditions: u-87mg atcc
C6 [2] = experiment: Antiinvasive activity in rat C6 cells at 0.5 uM after 24 hrs by Transwell assay relative to control; type: functional
[3] = (§1) Antiinvasive activity in human U87 cells at 0.5 uM after 24 hrs by Transwell assay relative to control; type: functional, U-87MG ATCC
C6 [4] = experiment: Cytotoxicity against rat C6 cells assessed as cell survival rate at 10 uM after 24 hrs by MTT assay relative to control; type: functional; conditions: C6, 24 h, read-out: Survival
[5] = Cytotoxicity against human U87 cells assessed as cell survival rate at 10 uM after 24 hrs by MTT assay relative to control; type: functional, U-87MG ATCC; conditions: U-87 MG, read-out: Survival
U-87MG ATCC [6] = experiment: Induction of intracellular reactive oxygen species formation in human U87 cells at 2 uM after 24 hrs by DHE dye-based inverted fluorescent microscopic analysis; type: functional, cell-based
C6 [7] = experiment: Antimigratory activity in rat C6 cells at 0.5 uM after 24 hrs by Transwell assay relative to control; type: functional
C6 [8] = experiment: Cytotoxicity against rat C6 cells assessed as inhibition of cell proliferation after 24 hrs by MTT assay; type: functional, cell-based; conditions: for IC50: C6, 24 h
[9] = n-octanol/water partition coefficient, log P of the compound by HPLC analysis; type: physicochemical
U-87MG ATCC [10] = experiment: (§2) Cytotoxicity against human U87 cells assessed as inhibition of cell proliferation after 24 hrs by MTT assay; type: functional, cell-based
[11] = as §2; type: functional, cell-based, U-87MG ATCC; conditions: U-87 MG
[12] = Drug uptake in mitochondria of rat C6 cells at 1 uM after 24 hrs by Mitotracker Green FM staining-based laser confocal microscopic analysis; type: ADME; conditions: c6, 24 h
C6 [13] = experiment: Induction of intracellular reactive oxygen species formation in rat C6 cells at 2 uM after 24 hrs by DHE dye-based inverted fluorescent microscopic analysis; type: functional, cell-based
[14] = (§3) Antimigratory activity in human U87 cells at 0.5 uM after 24 hrs by Transwell assay relative to control; type: functional, U-87MG ATCC
U-87MG ATCC [15] = experiment: (§4) Antimigratory activity in human U87 cells at 2.5 uM after 24 hrs by Transwell assay relative to control; type: functional
[16] = as §4; type: functional, U-87MG ATCC
[17] = Cytotoxicity against human U87 cells assessed as cell survival rate up to 20 uM after 24 hrs by MTT assay relative to control; type: functional, U-87MG ATCC
[18] = (§5) Antiinvasive activity in human U87 cells at 2.5 uM after 24 hrs by Transwell assay relative to control; type: functional, U-87MG ATCC
[19] = Cytotoxicity against human U87 cells assessed as growth inhibition after 72 hrs by SRB assay; type: functional, cell-based, U-87MG ATCC; conditions: U-87 MG
[20] = Antiinvasive activity in human U87 cells at 2 uM after 24 hrs by Transwell assay relative to control; type: functional, U-87MG ATCC
[21] = Antimigratory activity in human U87 cells at 2 uM after 24 hrs by Transwell assay relative to control; type: functional, U-87MG ATCC
U-87MG ATCC [22] = experiment: as §5; type: functional
[23] = Cytotoxicity against human U87 cells assessed as cell survival rate at 20 uM after 24 hrs by MTT assay relative to control; type: functional, U-87MG ATCC; conditions: U-87 MG, read-out: Survival
C6 [24] = experiment: Antiinvasive activity in rat C6 cells at 1 uM after 24 hrs by Transwell assay; type: functional, cell-based
C6 [25] = experiment: Cytotoxicity against rat C6 cells assessed as cell survival rate at 20 uM after 24 hrs by MTT assay relative to control; type: functional; conditions: C6, 24 h, read-out: Survival
C6 [26] = experiment: Antimigratory activity in rat C6 cells at 1 uM after 24 hrs by Transwell assay; type: functional, cell-based
C6 [27] = experiment: Antiinvasive activity in rat C6 cells at 5 uM after 24 hrs by Transwell assay; type: functional, cell-based
U-87MG ATCC [28] = experiment: Antimigratory activity in human U87 cells at 5 uM after 24 hrs by Transwell assay; type: functional, cell-based
C6 [29] = experiment: Antimigratory activity in rat C6 cells at 5 uM after 24 hrs by Transwell assay; type: functional, cell-based
U-87MG ATCC [30] = experiment: Antiinvasive activity in human U87 cells at 5 uM after 24 hrs by Transwell assay; type: functional, cell-based
U-87MG ATCC [31] = experiment: as §1; type: functional
U-87MG ATCC [32] = experiment: as §3; type: functional

Compound	Drug uptake [1]	Activity (C6 [2])	viability at 10 µM (C6 [4]) [%]	viability at 10 µM [5] [%]	Activity (U-87MG ATCC [6])	Activity (C6 [7])	inhibition (C6 [8])	IC50 (C6 [8]) [µM]	logP [9]	inhibition (U-87MG ATCC [10])	IC50 [11] [µM]	Drug uptake [12]	Activity (C6 [13])	Activity [16] [%]	Activity [18] [%]	also measured
CCCCCCCCCCCCc1c2[n+](cc3c(OC)c(OC)ccc13)CCc1cc3c(cc1-2)OCO3.[I-]	Active	>60%	< 20	< 20	Active	>60%	Dose-dependent effect	1.65	3.66	Dose-dependent effect	3.09	Active	Active	–	–	Activity [3]: >60%; Activity [14]: >60%
CCCCCCCCCCOc1c(OC)ccc2cc3[n+](cc12)CCc1cc2c(cc1-3)OCO2	–	Active	–	–	Active	Active	Dose-dependent effect	2.95	2.26	Dose-dependent effect	5.73	–	Active	–	–	Activity (U-87MG ATCC [15]): Active
CCCCCCCCCCCCCCCCOc1c(OC)ccc2cc3[n+](cc12)CCc1cc2c(cc1-3)OCO2.[Br-]	Active	>60%	–	–	–	>60%	Dose-dependent effect	6.12	3.41	Dose-dependent effect	15.2	Active	–	>60	>60	Survival [17]: 38.95%
CCc1c2c(nc3ccc(OC(=O)N4CCC(N5CCCCC5)CC4)cc13)-c1cc3c(c(=O)n1C2)COC(=O)[C@]3(O)CC [IRINOTECAN]	–	–	–	–	–	–	–	–	–	–	–	–	–	–	–	IC50 [19]: > 250 µM
COc1ccc2cc3[n+](cc2c1OCc1ccccc1)CCc1cc2c(cc1-3)OCO2.[Br-]	–	>30%	–	–	Active	>30%	Dose-dependent effect	11.5	-0.86	Dose-dependent effect	> 20	–	Active	>30	>30	–
CCCCCCCCCCCCOc1c(OC)ccc2cc3[n+](cc12)CCc1cc2c(cc1-3)OCO2.[Br-]	Active	>60%	–	–	Active	>60%	Dose-dependent effect	1.24	3.43	Dose-dependent effect	4.55	Active	Active	–	–	Activity [20]: >60%; Activity [21]: >60%
COc1ccc2c(Cc3ccccc3)c3[n+](cc2c1OC)CCc1cc2c(cc1-3)OCO2	–	–	–	–	inactive	–	Dose-dependent effect	14.4	-0.73	Dose-dependent effect	> 20	–	inactive	–	–	Activity (U-87MG ATCC [15]): inactive; Activity (U-87MG ATCC [22]): inactive; viability at 20 µM [23]: 67.2%; Activity (C6 [24]): inactive; viability at 20 µM (C6 [25]): 37.2%; Activity (C6 [26]): inactive
COc1ccc2cc3[n+](cc2c1OC)CCc1cc2c(cc1-3)OCO2.[Cl-] [BERBERINE CHLORIDE]	Active	–	–	–	inactive	–	–	> 20	-1.68	–	> 20	Active	inactive	–	–	Activity (C6 [27]): Active; Activity (U-87MG ATCC [28]): Active; Activity (C6 [29]): Active; Activity (U-87MG ATCC [30]): Active
CCCCCCCCCCc1c2[n+](cc3c(OC)c(OC)ccc13)CCc1cc3c(cc1-2)OCO3	–	Active	< 20	< 20	Active	Active	Dose-dependent effect	1.12	2.37	Dose-dependent effect	3.65	–	Active	–	–	Activity (U-87MG ATCC [31]): Active; Activity (U-87MG ATCC [32]): Active
Cn1nnc2c(C(N)=O)ncn2c1=O [TEMOZOLOMIDE]	–	–	–	–	–	–	–	–	–	–	–	–	–	–	–	IC50 [19]: 19.4 µM
CCCCCCCCCCCCCCCCc1c2[n+](cc3c(OC)c(OC)ccc13)CCc1cc3c(cc1-2)OCO3.[I-]	Active	>30%	< 20	< 20	–	>30%	Dose-dependent effect	1.67	3.24	Dose-dependent effect	3.25	Active	–	–	–	Activity [3]: >30%; Activity [14]: >30%
CCCCCCCCCCCCCCCCCCc1c2[n+](cc3c(OC)c(OC)ccc13)CCc1cc3c(cc1-2)OCO3.[I-]	–	>30%	< 20	< 20	inactive	>30%	Dose-dependent effect	2.37	3.22	Dose-dependent effect	5.75	–	inactive	>30	>30	–
CCCCCCCCCCCCCCCCCCOc1c(OC)ccc2cc3[n+](cc12)CCc1cc2c(cc1-3)OCO2.[Br-]	–	>30%	–	–	inactive	>30%	Dose-dependent effect	4.45	3.01	Dose-dependent effect	22.5	–	inactive	>30	>30	–
